Measured values published in ChEMBL document CHEMBL4043204, “meso-Dihydroguaiaretic acid derivatives with antibacterial and antimycobacterial activity” (Bioorg Med Chem, 2017).
Calls of active or inactive are those of the source. The rule behind the calls is not given here.

How the values were obtained:
[1] = test system: Acinetobacter baumannii; assay: Antibacterial activity against carbapenem-resistant Acinetobacter baumannii (12-666) assessed as inhibition of microbial growth up to 50 ug/ml incubated for 24 hrs by microdilution assay; assay type: functional
[2] = test system: Escherichia coli; assay: Antibacterial activity against extended-spectrum beta-lactamase-positive Escherichia coli (14-2081) assessed as inhibition of microbial growth up to 50 ug/ml incubated for 24 hrs by microdilution assay; assay type: functional
[3] = test system: Escherichia coli; assay: Antibacterial activity against oxacillin-resistant Escherichia coli OXA-48 assessed as inhibition of microbial growth up to 50 ug/ml incubated for 24 hrs by microdilution assay; assay type: functional
[4] = test system: Pseudomonas aeruginosa; assay: Antibacterial activity against carbapenem-resistant Pseudomonas aeruginosa (13-1391) assessed as inhibition of microbial growth up to 50 ug/ml incubated for 48 hrs by microdilution assay; assay type: functional
[5] = test system: Klebsiella pneumoniae; assay: Antibacterial activity against NDM-1 positive Klebsiella pneumoniae (14-3335) assessed as inhibition of microbial growth up to 50 ug/ml incubated for 24 hrs by microdilution assay; assay type: functional
[6] = test system: Klebsiella pneumoniae; assay: Antibacterial activity against extended-spectrum beta-lactamase-positive Klebsiella pneumoniae (14-2081) assessed as inhibition of microbial growth up to 50 ug/ml incubated for 24 hrs by microdilution assay; assay type: functional
[7] = test system: Providencia rettgeri; assay: Antibacterial activity against NDM-1 positive Providencia rettgeri assessed as inhibition of microbial growth up to 50 ug/ml incubated for 24 hrs by microdilution assay; assay type: functional
[8] = test system: Stenotrophomonas maltophilia; assay: Antibacterial activity against trimethoprim-sulfamethoxazole-resistant Stenotrophomonas maltophilia assessed as inhibition of microbial growth up to 50 ug/ml incubated for 24 hrs by microdilution assay; assay type: functional
[9] = test system: Mycobacterium tuberculosis; assay: Antimycobacterial activity against Mycobacterium tuberculosis H37Rv ATCC 27294 assessed as inhibition of mycobacterial growth incubated for 2 weeks by MABA method; assay type: functional
[10] = test system: Mycobacterium tuberculosis; assay: Antimycobacterial activity against Mycobacterium tuberculosis H37Rv ATCC 27294 assessed as inhibition of mycobacterial growth up to 50 ug/ml incubated for 2 weeks by MABA method; assay type: functional
[11] = test system: Enterococcus faecium; assay: Antibacterial activity against vancomycin-resistant Enterococcus faecium (10-984) assessed as inhibition of microbial growth incubated for 24 hrs by microdilution assay; assay type: functional
[12] = test system: Staphylococcus aureus; assay: Antibacterial activity against methicillin-resistant Staphylococcus aureus (14-2095) assessed as inhibition of microbial growth incubated for 24 hrs by microdilution assay; assay type: functional
[13] = test system: Staphylococcus epidermidis; assay: Antibacterial activity against linezolid-resistant Staphylococcus epidermidis (14-583) assessed as inhibition of microbial growth incubated for 24 hrs by microdilution assay; assay type: functional
[14] = test system: Staphylococcus haemolyticus; assay: Antibacterial activity against linezolid-resistant Staphylococcus haemolyticus 2975 assessed as inhibition of microbial growth incubated for 24 hrs by microdilution assay; assay type: functional; settings: Staphylococcus haemolyticus, 2975, 24 h
[15] = test system: Vero; assay: Cytotoxicity against African green monkey Vero cells assessed as reduction in cell viability incubated for 24 hrs by trypan blue staining based assay; settings: Chlorocebus sabaeus
[16] = Selectivity index, ratio of IC50 for cytotoxicity against African green monkey Vero cells to MIC for antibacterial activity against methicillin-resistant Staphylococcus aureus (14-2095)

**Q.** For COc1cc(C[C@@H](C)[C@@H](C)Cc2ccc(OC(=O)c3ccc(Br)cc3)c(OC)c2)ccc1OC(=O)c1ccc(Br)cc1, which Activity [1] is on record?
**A.** inactive

**Q.** What about the Activity [2] of the same molecule?
**A.** inactive

**Q.** What about the Activity [3] of the same molecule?
**A.** inactive

**Q.** And the Activity [4]?
**A.** inactive

**Q.** And the Activity [5]?
**A.** inactive

**Q.** What about the Activity [6] of the same molecule?
**A.** inactive

**Q.** What about the Activity [7] of the same molecule?
**A.** inactive

**Q.** What about the Activity [8] of the same molecule?
**A.** inactive

**Q.** And the “-logMIC” value [9]?
**A.** 4.09

**Q.** What about the “growth inhibition (GI)” value [10] of the same molecule?
**A.** inactive

**Q.** With COc1cc(C[C@@H](C)[C@@H](C)Cc2ccc(OC(=O)c3ccccc3)c(OC)c2)ccc1OC(=O)c1ccccc1 as the molecule, how does the Activity [1] read?
**A.** inactive

**Q.** And the Activity [2]?
**A.** inactive

**Q.** What about the Activity [3] of the same molecule?
**A.** inactive

**Q.** What about the Activity [4] of the same molecule?
**A.** inactive

**Q.** And the Activity [5]?
**A.** inactive

**Q.** What about the Activity [6] of the same molecule?
**A.** inactive

**Q.** What about the Activity [7] of the same molecule?
**A.** inactive

**Q.** And the Activity [8]?
**A.** inactive

**Q.** And the “-logMIC” value [9]?
**A.** 4.14

**Q.** What about the “growth inhibition (GI)” value [10] of the same molecule?
**A.** inactive

**Q.** Which Activity [1] does the source give for CCCCCCCCCCCCCCCCCC(=O)Oc1ccc(C[C@H](C)[C@H](C)Cc2ccc(O)c(OC)c2)cc1OC (racemic) here?
**A.** inactive

**Q.** What about the Activity [2] of the same molecule?
**A.** inactive

**Q.** And the Activity [3]?
**A.** inactive

**Q.** And the Activity [4]?
**A.** inactive

**Q.** What about the Activity [5] of the same molecule?
**A.** inactive

**Q.** And the Activity [6]?
**A.** inactive

**Q.** What about the Activity [7] of the same molecule?
**A.** inactive

**Q.** And the Activity [8]?
**A.** inactive

**Q.** What about the “-logMIC” value [9] of the same molecule?
**A.** 3.84

**Q.** And the “growth inhibition (GI)” value [10]?
**A.** inactive

**Q.** With CCCCCCCC/C=C\CCCCCCCC(=O)Oc1ccc(C[C@H](C)[C@H](C)Cc2ccc(O)c(OC)c2)cc1OC (racemic) as the molecule, how does the Activity [1] read?
**A.** inactive

**Q.** And the Activity [2]?
**A.** inactive

**Q.** What about the Activity [3] of the same molecule?
**A.** inactive

**Q.** What about the Activity [4] of the same molecule?
**A.** inactive

**Q.** What about the Activity [5] of the same molecule?
**A.** inactive

**Q.** What about the Activity [6] of the same molecule?
**A.** inactive

**Q.** And the Activity [7]?
**A.** inactive

**Q.** What about the Activity [8] of the same molecule?
**A.** inactive

**Q.** And the “-logMIC” value [9]?
**A.** 4.51

**Q.** What about the “growth inhibition (GI)” value [10] of the same molecule?
**A.** inactive

**Q.** Which Activity [1] does the source give for CCCC(=O)Oc1ccc(C[C@H](C)[C@H](C)Cc2ccc(O)c(OC)c2)cc1OC (racemic) here?
**A.** inactive

**Q.** What about the Activity [2] of the same molecule?
**A.** inactive

**Q.** What about the Activity [3] of the same molecule?
**A.** inactive

**Q.** And the Activity [4]?
**A.** inactive

**Q.** What about the Activity [5] of the same molecule?
**A.** inactive

**Q.** And the Activity [6]?
**A.** inactive

**Q.** And the Activity [7]?
**A.** inactive

**Q.** And the Activity [8]?
**A.** inactive

**Q.** And the “-logMIC” value [9]?
**A.** 3.94

**Q.** And the “growth inhibition (GI)” value [10]?
**A.** inactive

**Q.** With CCCCCCCCCCCCCCCC(=O)Oc1ccc(C[C@H](C)[C@H](C)Cc2ccc(O)c(OC)c2)cc1OC (racemic) as the molecule, how does the Activity [1] read?
**A.** inactive

**Q.** And the Activity [2]?
**A.** inactive

**Q.** What about the Activity [3] of the same molecule?
**A.** inactive

**Q.** And the Activity [4]?
**A.** inactive

**Q.** And the Activity [5]?
**A.** inactive

**Q.** What about the Activity [6] of the same molecule?
**A.** inactive

**Q.** What about the Activity [7] of the same molecule?
**A.** inactive

**Q.** What about the Activity [8] of the same molecule?
**A.** inactive

**Q.** What about the MIC [11] of the same molecule?
**A.** > 50 µg/mL

**Q.** What about the MIC [12] of the same molecule?
**A.** 50 µg/mL

**Q.** And the MIC [13]?
**A.** > 50 µg/mL

**Q.** And the MIC [14]?
**A.** > 50 µg/mL

**Q.** What about the “-logMIC” value [9] of the same molecule?
**A.** 4.54

**Q.** What about the “growth inhibition (GI)” value [10] of the same molecule?
**A.** inactive

**Q.** What does the source list for C[C@H]1COc2c(N3CCN(C)CC3)c(F)cc3c(=O)c(C(=O)O)cn1c23.C[C@H]1COc2c(N3CCN(C)CC3)c(F)cc3c(=O)c(C(=O)O)cn1c23.O [LEVOFLOXACIN]?
**A.** MIC [11]: > 50 µg/mL; MIC [12]: 3.12 µg/mL; IC50 [15]: 293 µg/mL; MIC [13]: 12.5 µg/mL; MIC [14]: 12.5 µg/mL; Selectivity Index [16]: 93.81; MIC ([9]; Mycobacterium tuberculosis, H37Rv ATCC 27294, 336 h): 0.078 µg/mL

**Q.** Which results are given for COc1ccc(C[C@@H](C)[C@@H](C)Cc2ccc(OC)c(OC)c2)cc1OC [TERAMEPROCOL]?
**A.** Activity [1]: inactive; Activity [2]: inactive; Activity [3]: inactive; Activity [4]: inactive; Activity [5]: inactive; Activity [6]: inactive; Activity [7]: inactive; Activity [8]: inactive; -logMIC [9]: 4.35; growth inhibition (GI) [10]: inactive
